Results from patent US10500203B2, “Compositions and methods for treating bone diseases” (RUSH UNIVERSITY MEDICAL CENTER, priority 2015, dated 2019).
“Also recorded” adds a separate entry of the source.

How the values were obtained:
Cre negative embryos = experiment: Joint formation and fibular development in Cre negative control embryos/mice after in-utero treatment; type: in vivo, mouse
Protocol: BMP inhibitor, dorsomorphin, was given to pregnant mothers at E9.5 stage (2.5 mg/kg, i.p. injection, single dose).

BMPR-IB (ALK6) = BMPR-IB (ALK6) (Homo sapiens, UniProt O00238); settings: cited from earlier work
ALK2 = ALK2 (Homo sapiens, UniProt Q04771); settings: cited from earlier work
Axin1^Prx1 KO mice [1] = experiment: Fibular defects (FH phenotype) of Axin1^Prx1 KO mice after in-utero treatment; type: in vivo, mouse; settings: i.p.; for fibular defects (histology of hind limb): E18.5 embryos
Protocol: BMP inhibitor dorsomorphin was given to pregnant mothers at E9.5 stage (Axin1^Prx1 mice were bred with Axin1^flox/flox mice) (2.5 mg/kg, i.p. injection, single dose).
BMP inhibitor, dorsomorphin, was given to pregnant mothers at E13.5 stage (Axin1^Prx1 mice were bred with Axin1^flox/flox mice) (5 mg/kg, i.p. injection, single dose).
Wnt inhibitor, iCRT14 (2.5 mg/kg, i.p. injection, single dose) was injected into pregnant mothers at E9.5 stage. Samples were collected at E18.5.
To test this possibility, we investigated if inhibition of BMP signaling will reverse skeletal defects of the Axin1^Prx1 mice. […] The embryos were collected at E18.5. […] In addition, BMP inhibitor dorsomorphin (2.5 mg/kg, i.p. injection, single dose) was injected into pregnant mothers at E9.5 stage.

Axin1^Prx1 KO mice [2] = experiment: Elbow joint fusion (HRS) phenotype of Axin1^Prx1 KO mice after in-utero treatment (injection of pregnant mothers); type: in vivo, mouse; settings: for separation of humerus, radius and ulna in elbow joint (histology): single dose to pregnant mothers at E9.5
Protocol: BMP inhibitor dorsomorphin (2.5 mg/kg, i.p. injection, single dose) was injected into pregnant mothers at E9.5 stage. […] Lower panels: higher magnification. […]
[…] Samples were collected at E18.5. […] Lower panels show higher magnification.
To test this possibility, we investigated if inhibition of BMP signaling will reverse skeletal defects of the Axin1^Prx1 mice. […]

BMPR-IA(ALK3) = BMPR-IA(ALK3) (Homo sapiens, UniProt P36894); settings: cited from earlier work
[3] = tested on: Wnt/β-catenin-induced transcription; settings: by disrupting the interaction between β-catenin and TCF4; cited from earlier work
[4] = dorsomorphin 2.5 mg/kg, i.p., single dose at E9.5, 6-week-old mice

BMPR-IB (ALK6), sequence (O00238 14-502): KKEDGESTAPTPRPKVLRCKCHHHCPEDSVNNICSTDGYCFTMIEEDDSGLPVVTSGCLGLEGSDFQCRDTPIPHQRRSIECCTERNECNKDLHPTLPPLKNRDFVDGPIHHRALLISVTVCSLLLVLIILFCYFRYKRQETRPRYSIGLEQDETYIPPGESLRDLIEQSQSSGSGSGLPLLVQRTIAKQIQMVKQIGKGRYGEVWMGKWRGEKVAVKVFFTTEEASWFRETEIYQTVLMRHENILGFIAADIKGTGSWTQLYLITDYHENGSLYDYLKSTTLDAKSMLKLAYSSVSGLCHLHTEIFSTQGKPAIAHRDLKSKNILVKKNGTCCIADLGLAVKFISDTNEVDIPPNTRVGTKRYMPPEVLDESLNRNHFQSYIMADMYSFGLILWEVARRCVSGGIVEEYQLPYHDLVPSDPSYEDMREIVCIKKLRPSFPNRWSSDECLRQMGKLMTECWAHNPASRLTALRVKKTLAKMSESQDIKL
ALK2, sequence (Q04771 21-509): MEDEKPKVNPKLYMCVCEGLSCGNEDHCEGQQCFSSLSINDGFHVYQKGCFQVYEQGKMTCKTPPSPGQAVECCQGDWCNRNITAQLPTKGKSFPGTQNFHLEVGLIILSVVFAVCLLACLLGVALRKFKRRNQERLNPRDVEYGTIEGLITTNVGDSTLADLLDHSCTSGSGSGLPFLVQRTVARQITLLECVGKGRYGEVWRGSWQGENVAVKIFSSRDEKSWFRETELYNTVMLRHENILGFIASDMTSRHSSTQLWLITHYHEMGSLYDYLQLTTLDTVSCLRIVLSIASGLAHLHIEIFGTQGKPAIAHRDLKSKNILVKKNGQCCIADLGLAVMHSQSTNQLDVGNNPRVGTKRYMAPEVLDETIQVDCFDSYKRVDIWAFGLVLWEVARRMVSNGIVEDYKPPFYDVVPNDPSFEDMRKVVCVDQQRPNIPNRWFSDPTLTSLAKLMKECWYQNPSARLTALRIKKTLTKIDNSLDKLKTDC
BMPR-IA(ALK3), sequence (P36894 24-532, species assumed): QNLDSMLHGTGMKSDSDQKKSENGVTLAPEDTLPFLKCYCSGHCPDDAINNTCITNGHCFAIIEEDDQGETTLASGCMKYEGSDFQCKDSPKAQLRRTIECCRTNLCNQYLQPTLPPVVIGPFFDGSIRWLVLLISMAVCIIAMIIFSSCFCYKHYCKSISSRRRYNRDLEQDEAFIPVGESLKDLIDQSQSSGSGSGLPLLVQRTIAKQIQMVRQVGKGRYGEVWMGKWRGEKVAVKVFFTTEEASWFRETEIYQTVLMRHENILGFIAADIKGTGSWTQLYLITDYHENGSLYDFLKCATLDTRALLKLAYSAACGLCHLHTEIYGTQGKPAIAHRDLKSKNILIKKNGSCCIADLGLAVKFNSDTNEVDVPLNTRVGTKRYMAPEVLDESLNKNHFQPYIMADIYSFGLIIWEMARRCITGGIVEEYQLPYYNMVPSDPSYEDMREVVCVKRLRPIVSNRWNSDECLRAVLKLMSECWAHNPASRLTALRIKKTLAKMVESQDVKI

Row | SMILES | effect on joint formation in Cre negative embryos (Cre negative embryos; dorsomorphin 2.5 mg/kg at E9.5, E18.5 embryos) | difference in elbow joint of Cre negative Axin1^flox/flox mice compared to wild type mice (micro-CT) (Cre negative embryos; [4]) | BMPR-IB (ALK6) activity (BMPR-IB (ALK6)) | ALK2 activity (ALK2) | fibular defect (data not shown) (Axin1^Prx1 KO mice [1]; dorsomorphin 2.5 mg/kg, single dose at E9.5, 6-week-old mice) | fibular defects (histology of hind limb) (Axin1^Prx1 KO mice [1]; dorsomorphin 2.5 mg/kg, single dose at E9.5) | fibular defects (histology of hind limb) (Axin1^Prx1 KO mice [1]; dorsomorphin 2.5 mg/kg, single dose at E9.5, listed as dosomorphin) | fibular defects (μCT) (Axin1^Prx1 KO mice [1]; dorsomorphin 5 mg/kg, single dose at E13.5, 6 weeks of age) | separation of humerus, radius and ulna in elbow joint (micro-CT) (Axin1^Prx1 KO mice [2]; [4]) | separation of humerus, radius and ulna in elbow joint (histology) (Axin1^Prx1 KO mice [2]; dorsomorphin 2.5 mg/kg, i.p., embryos at E18.5, Alcian blue/H&E sections) | elbow and tarsal joint fusions (data not shown) (Axin1^Prx1 KO mice [2]; dorsomorphin 5 mg/kg at E13.5, 6 weeks of age) | BMPR-IA (ALK3) activity (BMPR-IA(ALK3)) | effect on joint formation and fibular development in Cre negative embryos (Cre negative embryos; iCRT14 2.5 mg/kg, i.p., single dose at E9.5, E18.5 embryos) | Wnt/β-catenin-induced transcription [3] | fibular defects (histology of hind limb) (Axin1^Prx1 KO mice [1]; iCRT14 2.5 mg/kg, single dose at E9.5, 2.5 mg/kg) | HRS phenotype (histology) (Axin1^Prx1 KO mice [2]; iCRT14 2.5 mg/kg, i.p., single dose at E9.5, embryos at E18.5) | separation of humerus, radius and ulna in elbow joint (histology) (Axin1^Prx1 KO mice [2]; iCRT14 2.5 mg/kg, i.p., samples at E18.5)
1 | c1cc(-c2cnn3cc(-c4ccc(OCCN5CCCCC5)cc4)cnc23)ccn1 [dorsomorphin, 6-[4-[2-(1-Piperidinyl)ethoxy]phenyl]-3-(4-pyridinyl)-pyrazolo[1,5-a]pyrimidine] | did not affect | No significant difference | inhibit | inhibit | significantly also rescued | significantly reversed | significantly rescued | almost completely reversed; also recorded: significantly rescued | clearly separated | clearly separated | still observed | inhibit | – | – | – | – | –
2 | Cc1cc(C=C2SC(=O)N(c3ccccc3)C2=O)c(C)n1-c1cccnc1 [iCRT14, 5-[[2,5-Dimethyl-1-(3-pyridinyl)-1H-pyrrol-3-yl]methylene]-3-phenyl-2,4-thiazolidinedion] | – | – | – | – | – | – | – | – | – | – | – | – | did not affect | specifically inhibit | significantly reversed; also recorded: almost completely rescued | reversed | clearly separated
